The text below walks through data of patent US7232912B2, “Indazole compounds, pharmaceutical compositions, and methods for mediating or inhibiting cell proliferation” (Agouron Pharmaceuticals, Inc., priority 2000, dated 2007).

Holding throughout (type): biochemical
The target in one assay is CDK4/cyclin D3 (Homo sapiens, UniProt P11802). The assay can be described thus: Inhibition of CDK4/Cyclin D Retinoblastoma Kinase Activity. The following applies: apparent Ki. A digest of the protocol:
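Human CDK4/cyclin D3 (full-length or cyclin D3 1–264), insect-cell expressed, at 5 or 50 nM with His-tagged Rb 386–928 substrate, 25 μM ATP plus [32P/33P]ATP, pH 7.4, 2% DMSO, 30 °C for 20 min; tight binders used 5 nM enzyme for 60 min. Filter-captured phospho-Rb quantified by phosphorimager. Apparent Ki from competitive or tight-binding inhibition fits.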

The next assay deals with T1, CDK2/cyclin A (Homo sapiens, UniProt P24941).
T1 construct: made in house; host or cells: CDK2: insect cells (baculovirus); cyclin A: E. coli
Description: Inhibition of CDK2/Cyclin A Retinoblastoma Kinase Activity. To be noted: apparent Ki. A digest of the protocol:
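Baculovirus-expressed CDK2 complexed with proteolyzed cyclin A, at 150 nM or 5 nM, phosphorylating an Rb fragment with 25 µM [32/33P]ATP in HEPES pH 7.4, 2% DMSO. Reactions run 20 min at 30°C, EDTA-stopped, filter-captured; apparent Ki from competitive or tight-binding competitive fits.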

Another assay has as its target T2, FGFR1 tyrosine kinase (Homo sapiens, UniProt P11362, C488A/C584S/L457V).
T2 construct: the cytosolic domain of FGFR1 tyrosine kinase (amino acids 456–766); made in house; host or cells: Sf9 insect cells (baculovirus)
Description: Inhibition of phosphorylated FGF receptor tyrosine kinase activity. To be noted: read-out: FGF % Inhib. at 1 μM. A digest of the protocol:
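Phosphorylated Sf9-expressed kinases, FGFR1 (aa 456–766) at 100 nM and LCK (aa 223–509) at 50 nM, with 100 μM ATP and poly(Glu,Tyr) 4:1 at 5.1 (FGFR) or 25 mM (LCK), pH 7.5, 37° C. Pyruvate kinase/LDH-coupled NADH loss read at 340 nm under initial-rate conditions; % inhibition versus 2% DMSO control.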

T2 sequence (P11362 456-766 L457V/C488A/C584S): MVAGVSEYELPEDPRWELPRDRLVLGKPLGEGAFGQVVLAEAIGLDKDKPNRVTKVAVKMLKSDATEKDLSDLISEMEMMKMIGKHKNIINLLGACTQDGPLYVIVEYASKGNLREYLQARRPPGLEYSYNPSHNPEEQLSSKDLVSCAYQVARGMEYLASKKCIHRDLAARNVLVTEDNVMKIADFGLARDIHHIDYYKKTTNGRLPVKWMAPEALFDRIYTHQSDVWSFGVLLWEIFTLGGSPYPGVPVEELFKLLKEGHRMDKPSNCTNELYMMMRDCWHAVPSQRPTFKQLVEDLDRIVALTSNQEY
CDK4/cyclin D3, sequence (P11802 2-303 limits assumed): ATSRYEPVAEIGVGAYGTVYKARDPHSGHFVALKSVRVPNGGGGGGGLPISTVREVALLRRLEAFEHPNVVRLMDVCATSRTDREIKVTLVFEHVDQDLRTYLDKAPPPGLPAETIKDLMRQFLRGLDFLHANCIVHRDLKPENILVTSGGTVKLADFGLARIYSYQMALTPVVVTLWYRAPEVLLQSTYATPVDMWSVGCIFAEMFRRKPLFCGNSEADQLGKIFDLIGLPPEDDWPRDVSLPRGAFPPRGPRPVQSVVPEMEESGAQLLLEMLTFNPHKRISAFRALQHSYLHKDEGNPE
CDK4/cyclin D3, sequence (P30281 1-264 limits assumed, further chain): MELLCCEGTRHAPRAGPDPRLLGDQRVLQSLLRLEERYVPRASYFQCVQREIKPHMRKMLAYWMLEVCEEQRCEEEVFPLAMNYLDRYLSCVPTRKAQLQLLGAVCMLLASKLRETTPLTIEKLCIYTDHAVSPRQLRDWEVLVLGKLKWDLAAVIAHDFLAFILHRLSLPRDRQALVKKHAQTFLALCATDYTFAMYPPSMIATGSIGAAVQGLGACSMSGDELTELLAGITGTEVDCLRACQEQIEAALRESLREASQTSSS

For `CCNCc1cncc(-c2ccc3[nH]nc(-c4nc5ccccc5[nH]4)c3c2)c1C` [Example 74, {5-[3-(1H-Benzoimidazol-2-yl)-1H-indazol-5-yl]-4-methyl-pyridin-3-ylmethyl}-ethyl-amine], the figures for the Ki at CDK4/cyclin D3 and at CDK2/cyclin A were 0.52 nM and 1.6 nM, respectively. For the same compound, the inhibition at 1 µM on FGFR1 tyrosine kinase is 82.6%.
